For data set [1] the following is noted: cited from earlier work.
Data set [2] is described as follows: Stability of DNCB in a dissolved state. Format: physicochemical. The note with it: even more unstable at high temperatures.

With `O=[N+]([O-])c1ccc(Cl)c([N+](=O)[O-])c1` [DNCB, 1-chloro-2,4-dinitrobenzene], the “adverse events of DNCB” value in data set [1] (reports to date) is on record as “have not been any reports to date of cases of life-threatening adverse events”. Besides, in data set [1] (research conducted in the 1950s in the United States), the carcinogenicity result was “not carcinogenic”. Besides, the “stability in a dissolved state” value in data set [2] is “unstable in a dissolved state”.

Values taken from patent US20040109825A1, “Topical patch preparation kit containing a delayed-type hypersensitivity inducer” (priority 2002, published 2004).
